Source: BindingDB's records for doi:10.1111/cbdd.12752 (Jagiellonian University Medical College, 2016)

Target: Histamine H4 receptor (Homo sapiens, UniProt Q9H3N8)
Experiment: In vitro [3H]histamine Binding Assay
Conditions: pH 7.4; 4 °C
Experimental: Prior to the experiments, cell membranes were sedimented by a 10 min centrifugation at 4 °C and 16 0009x g and resuspended in binding buffer (12.5 mM MgCl2, 1 mM EDTA and 75 mM Tris/HCl, pH 7.4). Competition binding experimentswere carried out by incubating membranes, 35 ug/well (prepared from Sf9 cells transiently expressing human H4R, co-expressed with G proteins Galphai2 and Gbeta1gamma2 subunits) in a final volume of 0.2 mL containing binding buffer and [3H]histamine 2x HCl (10 nM, 15.3 Ci/mmol, PerkinElmer, Waltham, MA, USA) in a 96 well microtitre plate. Assays were run in duplicates or triplicates with four or seven appropriate concentrations between 100 nM or 0.1 nM and 100 uM of the test compounds. Amount of experiments was at least 2. Only exceptions were for substance 2, 3, and 4 where only one experiment in duplicates was performed.Incubations were performed for 60 min at 25 °C and shaking at 250 rpm. Non-specific binding was determined.

Ki	Structure (SMILES)
> 100 µM	CN1CCN(CCCNC(=O)c2cc3cc(Cl)ccc3[nH]2)CC1 [5-Chloro-N-(3-(4-methylpiperazin-1-yl)propyl)-1H-indole-2-carboxamide (5)]
3.19 µM	CN1CCN(c2nc(N)nc(-c3ccncc3)n2)CC1 [4-(4-Methylpiperazin-1-yl)-6-(pyridin-4-yl)-1,3,5-triazin-2-amine (15)]
> 100 µM	CN1CCN(CCCNC(=O)c2sc3cc(Cl)ccc3c2Cl)CC1 [3,6-Dichloro-N-(3-(4-methylpiperazin-1-yl)propyl)benzo[b]thiophene-2-carboxamide (6)]
7.5 µM	CN1CCN(c2nc(N)nc(Cc3ccccc3)n2)CC1 [4-Benzyl-6-(4-methylpiperazin-1-yl)-1,3,5-triazin-2-amine (13)]
5.6 µM	CN1CCN(c2nc(N)nc(Cc3cccc4ccccc34)n2)CC1 [4-(4-Methylpiperazin-1-yl)-6-(naphthalen-1-ylmethyl)-1,3,5-triazin-2-amine (12)]
> 100 µM	CN1CCN(C(=O)c2ccccc2Cl)CC1 [(2-Chlorophenyl)(4-methylpiperazin-1-yl)methanone (1)]
3.52 µM	CN1CCN(C(=O)Nc2ccc(Cl)cc2)CC1 [N-(4-Chlorophenyl)-4-methylpiperazine-1-carboxamide (4)]
14.6 µM	CN1CCN(c2nc(N)nc(CN3C(=O)NC(C)(C)C3=O)n2)CC1 [3-((4-Amino-6-(4-methylpiperazin-1-yl)-1,3,5-triazin-2-yl)methyl)-5,5-dimethylimidazolidine-2,4-dione (9)]
3.88 µM	CN1CCN(C(=O)c2cccc(Cl)c2)CC1 [(3-Chlorophenyl)(4-methylpiperazin-1-yl)methanone (2)]
7.55 µM	CN1CCN(C(=O)c2ccc(Cl)cc2)CC1 [(4-Chlorophenyl)(4-methylpiperazin-1-yl)methanone (3)]
> 100 µM	CN1CCN(CCCNC(=O)Nc2cccc(Cl)c2)CC1 [1-(3-Chlorophenyl)-3-(3-(4-methylpiperazin-1-yl)propyl)urea (7)]
10.6 µM	CN1CCN(c2nc(N)nc(COc3ccc(Cl)cc3)n2)CC1 [4-((4-Chlorophenoxy)methyl)-6-(4-methylpiperazin-1-yl)-1,3,5-triazin-2-amine (14)]

Structure (SMILES)	Ki
CC(C)Cc1nc(N)nc(N2CCN(C)CC2)n1 [4-(4-Methylpiperazin-1-yl)-6-(2-methylpropyl)-1,3,5-triazin-2-amine (10)]	8.26 µM
